Legend:
[1] = molar heat capacity at constant pressure; xn = mol fraction of the nth substance listed; conditions: 101 kPa, Liquid
[2] = molar heat capacity at constant pressure; conditions: 101.33 kPa, Liquid, Cooling curve

C1N2CN3CN1CN(C2)C3 [1,3,5,7-tetraazaadamantane] + CC(=O)O
molar heat capacity at constant pressure [J/K/mol], [1], Vacuum adiabatic calorimetry
Conditions | x1 = 0.022 | x1 = 0.0454 | x1 = 0.0703 | x1 = 0.0967 | x1 = 0.1249 | x1 = 0.1551 | x1 = 0.1873 | x1 = 0.2221
308.15 K | 137.35 | 144.8 | 151.94 | 159.76 | 170.64 | 180.97 | 191.09 | 203.69
313.15 K | 142.53 | 150.32 | 157.16 | 165.58 | 176.29 | 187.61 | 198.06 | 210.89
318.15 K | 147.51 | 155.25 | 162.14 | 170.38 | 181.92 | 193.63 | 203.66 | 216.63
323.15 K | 152.45 | 160.18 | 166.78 | 175.7 | 186.63 | 198.28 | 209.59 | 222.76
328.15 K | 157.24 | 165.08 | 172 | 180.88 | 191.96 | 204.18 | 214.96 | –
333.15 K | 161.64 | 169.05 | 176.96 | 185.28 | 197.37 | 209.36 | 220.93 | 235.17

CC(=O)OC(C)=O [ethanoic anhydride]
[2]
Conditions | molar heat capacity at constant pressure [J/K/mol]
313.15 K | 200.73
333.15 K | 204.34

CC(=O)OC(C)=O [ethanoic anhydride] + CC(=O)O
molar heat capacity at constant pressure [J/K/mol], [1], Cooling curve
Conditions | x1 = 0.0613 | x1 = 0.1282 | x1 = 0.2013 | x1 = 0.2817 | x1 = 0.3704 | x1 = 0.4687 | x1 = 0.5785 | x1 = 0.7017 | x1 = 0.8411 | x1 = 1
308.15 K | 139.18 | 144.25 | 149.4 | 154.9 | 160.85 | 167.3 | 174.47 | 182.33 | 190.56 | 199.93
313.15 K | 139.82 | 144.91 | 150.09 | 155.59 | 161.58 | 168.08 | 175.28 | 183.12 | 191.49 | 200.73
318.15 K | 140.51 | 145.46 | 150.76 | 156.27 | 162.26 | 168.76 | 176.03 | 183.96 | 192.33 | 201.58
323.15 K | 141.12 | 145.9 | 151.31 | 156.85 | 162.89 | 169.45 | 176.76 | 184.78 | 193.23 | 202.53
328.15 K | 141.75 | 146.52 | 152.03 | 157.59 | 163.68 | 170.33 | 177.68 | 185.79 | 194.35 | 203.67
333.15 K | 142.23 | 147.13 | 152.51 | 158.1 | 164.24 | 170.89 | 178.31 | 186.44 | 195 | 204.34

CCCCCCC [heptane]
[2]
Conditions | molar heat capacity at constant pressure [J/K/mol]
313.15 K | 230.37
333.15 K | 240.03

CC(=O)O [acetic acid]
[2]
Conditions | molar heat capacity at constant pressure [J/K/mol]
313.15 K | 135.5
333.15 K | 137.21

CC(=O)O [acetic acid] + CC(=O)OC(C)=O
[1], Cooling curve, x2 = 0
Conditions | molar heat capacity at constant pressure [J/K/mol]
308.15 K | 134.93
313.15 K | 135.5
318.15 K | 136
323.15 K | 136.35
328.15 K | 136.87
333.15 K | 137.21

Reference: the NIST ThermoML archive (doi:10.1021/je9006579)
